Results published in patent publication US10335503B2, “Compound that specifically binds to AMPA receptor” (Public University Corporation Yokohama City University, priority 2015, dated 2019).
*1 amine or outer side, *2 acyl side, *3 side chain or, on linkers, in order; H or OH if unused. Where a SMILES comes first, the peptide text is derived from it. Where no end group is shown, it is not given here. [ ]: non-standard residue; d: D form. NMeF = CN[C@@H](Cc1ccccc1)C(=O)O; Suc = O=C(CCC(=O)[*:2])[*:1]

Key:
Details in all cases: Positive substance, concentration not given
Nicotinic = test: Receptor binding panel: Nicotinic; parameters: species or system Human
Neurokinin NK1 = Neurokinin NK1 (Homo sapiens, UniProt P25103); test: Receptor binding panel: Neurokinin NK1
Chain of Neurokinin NK1 (P25103 whole entry): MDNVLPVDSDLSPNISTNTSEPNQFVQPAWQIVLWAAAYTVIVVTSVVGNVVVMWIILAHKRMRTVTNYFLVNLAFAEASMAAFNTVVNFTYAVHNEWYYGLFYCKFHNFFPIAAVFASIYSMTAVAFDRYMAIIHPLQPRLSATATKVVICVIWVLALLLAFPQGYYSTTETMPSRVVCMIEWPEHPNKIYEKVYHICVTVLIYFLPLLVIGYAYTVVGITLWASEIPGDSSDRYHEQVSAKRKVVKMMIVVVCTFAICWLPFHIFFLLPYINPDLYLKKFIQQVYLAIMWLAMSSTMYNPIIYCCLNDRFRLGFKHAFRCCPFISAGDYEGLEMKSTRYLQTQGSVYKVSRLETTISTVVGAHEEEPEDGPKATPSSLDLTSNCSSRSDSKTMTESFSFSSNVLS

Sigma σ1 = Sigma σ1 (Homo sapiens, UniProt Q99720); test: Receptor binding panel: Sigma σ1
Chain of Sigma σ1 (Q99720 whole entry): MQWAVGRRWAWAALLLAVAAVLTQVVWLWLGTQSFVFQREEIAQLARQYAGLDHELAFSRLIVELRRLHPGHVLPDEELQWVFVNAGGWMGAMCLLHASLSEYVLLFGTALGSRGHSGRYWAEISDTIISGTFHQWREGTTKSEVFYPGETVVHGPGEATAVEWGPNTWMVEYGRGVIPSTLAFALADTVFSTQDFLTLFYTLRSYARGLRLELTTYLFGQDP

Histamine H3 = Histamine H3 (Homo sapiens, UniProt Q9Y5N1); test: Receptor binding panel: Histamine H3
Chain of Histamine H3 (Q9Y5N1 whole entry): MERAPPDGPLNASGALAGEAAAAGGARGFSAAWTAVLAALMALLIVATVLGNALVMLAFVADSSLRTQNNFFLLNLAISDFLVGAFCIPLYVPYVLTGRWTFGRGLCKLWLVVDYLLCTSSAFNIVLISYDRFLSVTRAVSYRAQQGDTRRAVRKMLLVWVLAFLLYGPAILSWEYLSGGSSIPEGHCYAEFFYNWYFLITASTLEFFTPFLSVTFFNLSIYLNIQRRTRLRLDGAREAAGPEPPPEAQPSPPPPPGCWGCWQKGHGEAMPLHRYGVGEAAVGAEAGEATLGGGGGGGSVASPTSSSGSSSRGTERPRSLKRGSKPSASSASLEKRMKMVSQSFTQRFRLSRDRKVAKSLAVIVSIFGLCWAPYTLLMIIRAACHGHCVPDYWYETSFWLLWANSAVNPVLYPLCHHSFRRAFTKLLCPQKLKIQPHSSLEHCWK

Glutamate (AMPA) = test: Receptor binding panel: Glutamate (AMPA)
Histamine H2 = Histamine H2 (Homo sapiens, UniProt P25021); test: Receptor binding panel: Histamine H2
Chain of Histamine H2 (P25021 whole entry): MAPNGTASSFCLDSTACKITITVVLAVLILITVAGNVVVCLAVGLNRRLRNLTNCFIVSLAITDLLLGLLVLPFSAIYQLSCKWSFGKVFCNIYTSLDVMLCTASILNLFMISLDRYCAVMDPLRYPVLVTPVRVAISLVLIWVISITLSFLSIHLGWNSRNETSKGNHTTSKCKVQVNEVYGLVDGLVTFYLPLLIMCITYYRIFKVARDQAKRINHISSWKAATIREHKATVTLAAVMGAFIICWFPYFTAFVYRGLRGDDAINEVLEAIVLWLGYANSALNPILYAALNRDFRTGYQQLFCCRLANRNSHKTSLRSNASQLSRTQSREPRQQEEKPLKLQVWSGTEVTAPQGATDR

GABA A (BZ central) = test: Receptor binding panel: GABA A (BZ central)
Na channel site 2 = test: Receptor binding panel: Na channel site 2
K Channel KATP = test: Receptor binding panel: K Channel KATP
Sigma σ2 = Sigma σ2 (Homo sapiens, UniProt Q5BJF2); test: Receptor binding panel: Sigma σ2
Chain of Sigma σ2 (Q5BJF2 whole entry): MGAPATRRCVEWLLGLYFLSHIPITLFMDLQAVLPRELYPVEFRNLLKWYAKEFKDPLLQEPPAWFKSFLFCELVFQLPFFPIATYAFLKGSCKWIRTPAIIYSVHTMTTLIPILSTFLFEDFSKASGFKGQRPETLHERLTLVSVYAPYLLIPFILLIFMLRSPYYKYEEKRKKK

Serotonin transporter = Serotonin transporter (Homo sapiens, UniProt P31645); test: Receptor binding panel: Serotonin transporter
Chain of Serotonin transporter (P31645 whole entry): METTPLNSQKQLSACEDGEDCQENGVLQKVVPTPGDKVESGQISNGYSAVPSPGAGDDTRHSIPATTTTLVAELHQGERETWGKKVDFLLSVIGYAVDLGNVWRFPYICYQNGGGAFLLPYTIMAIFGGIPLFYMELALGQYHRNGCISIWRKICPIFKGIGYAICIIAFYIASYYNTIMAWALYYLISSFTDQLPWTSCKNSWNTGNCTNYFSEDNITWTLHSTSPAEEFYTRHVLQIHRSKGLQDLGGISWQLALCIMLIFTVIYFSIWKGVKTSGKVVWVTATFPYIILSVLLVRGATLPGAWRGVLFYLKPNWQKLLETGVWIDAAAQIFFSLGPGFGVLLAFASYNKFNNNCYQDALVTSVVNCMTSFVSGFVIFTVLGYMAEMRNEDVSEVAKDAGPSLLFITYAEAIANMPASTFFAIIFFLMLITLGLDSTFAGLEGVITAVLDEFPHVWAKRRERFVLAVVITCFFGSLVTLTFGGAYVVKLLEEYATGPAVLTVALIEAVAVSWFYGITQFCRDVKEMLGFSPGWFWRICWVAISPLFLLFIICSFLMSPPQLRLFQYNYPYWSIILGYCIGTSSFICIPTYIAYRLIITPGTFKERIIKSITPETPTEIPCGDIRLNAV

Glutamate (Kainate) = test: Receptor binding panel: Glutamate (Kainate)
Serotonin 5HT2A = Serotonin 5HT2A (Homo sapiens, UniProt P28223); test: Receptor binding panel: Serotonin 5HT2A
[1] = test system: Glutamate (NMDA agonist site); test: Receptor binding panel: Glutamate (NMDA agonist site)
Leukotriene B4 = test: Receptor binding panel: Leukotriene B4
Leukotriene D4 = test: Receptor binding panel: Leukotriene D4
[2] = test system: Glutamate (NMDA glycine site); test: Receptor binding panel: Glutamate (NMDA glycine site)
Melatonin MT1 = Melatonin MT1 (Homo sapiens, UniProt P48039); test: Receptor binding panel: Melatonin MT1
Chain of Melatonin MT1 (P48039 whole entry): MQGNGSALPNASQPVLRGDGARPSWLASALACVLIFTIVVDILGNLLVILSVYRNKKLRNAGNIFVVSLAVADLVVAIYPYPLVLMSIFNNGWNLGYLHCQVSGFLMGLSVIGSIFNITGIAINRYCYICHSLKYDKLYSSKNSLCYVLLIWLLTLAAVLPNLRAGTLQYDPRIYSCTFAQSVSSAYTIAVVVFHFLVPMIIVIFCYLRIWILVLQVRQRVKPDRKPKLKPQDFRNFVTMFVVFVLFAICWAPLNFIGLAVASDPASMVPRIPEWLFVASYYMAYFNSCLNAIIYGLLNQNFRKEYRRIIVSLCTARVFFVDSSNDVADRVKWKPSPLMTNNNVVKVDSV

GABA A (Agonist site) = test: Receptor binding panel: GABA A (Agonist site)
Opiate δ = Opiate δ (Homo sapiens, UniProt P41143); test: Receptor binding panel: Opiate δ
α2C-Adrenergic = α2C-Adrenergic (Homo sapiens, UniProt P18825); test: Receptor binding panel: α2C-Adrenergic
Chain of α2C-Adrenergic (P18825 whole entry): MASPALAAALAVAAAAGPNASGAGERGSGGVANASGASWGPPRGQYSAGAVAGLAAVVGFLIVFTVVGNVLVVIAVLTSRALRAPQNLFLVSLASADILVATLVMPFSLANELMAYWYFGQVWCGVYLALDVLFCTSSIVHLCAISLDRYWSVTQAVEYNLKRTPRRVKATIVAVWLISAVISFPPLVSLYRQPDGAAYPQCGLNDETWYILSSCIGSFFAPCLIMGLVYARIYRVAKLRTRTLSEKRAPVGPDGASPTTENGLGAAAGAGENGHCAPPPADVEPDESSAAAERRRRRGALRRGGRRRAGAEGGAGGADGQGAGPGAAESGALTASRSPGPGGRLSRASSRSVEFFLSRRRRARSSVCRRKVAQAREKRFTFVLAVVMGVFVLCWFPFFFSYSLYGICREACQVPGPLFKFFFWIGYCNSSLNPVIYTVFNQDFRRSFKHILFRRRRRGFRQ

α2A-Adrenergic = α2A-Adrenergic (Homo sapiens, UniProt P08913); test: Receptor binding panel: α2A-Adrenergic
Chain of α2A-Adrenergic (P08913 whole entry): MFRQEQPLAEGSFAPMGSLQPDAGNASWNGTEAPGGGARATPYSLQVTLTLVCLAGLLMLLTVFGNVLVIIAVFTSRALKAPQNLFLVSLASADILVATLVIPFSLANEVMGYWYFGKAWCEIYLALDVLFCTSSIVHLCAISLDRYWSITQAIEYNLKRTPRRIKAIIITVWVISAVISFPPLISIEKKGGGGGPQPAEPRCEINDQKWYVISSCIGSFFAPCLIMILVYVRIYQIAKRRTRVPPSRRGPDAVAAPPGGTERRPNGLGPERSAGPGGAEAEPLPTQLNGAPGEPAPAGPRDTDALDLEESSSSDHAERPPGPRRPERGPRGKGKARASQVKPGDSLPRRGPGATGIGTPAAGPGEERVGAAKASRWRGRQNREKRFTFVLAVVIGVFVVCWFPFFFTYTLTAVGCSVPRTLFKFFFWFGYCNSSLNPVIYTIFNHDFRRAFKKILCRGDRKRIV

Neurokinin NK3 = Neurokinin NK3 (Homo sapiens, UniProt P29371); test: Receptor binding panel: Neurokinin NK3
Chain of Neurokinin NK3 (P29371 whole entry): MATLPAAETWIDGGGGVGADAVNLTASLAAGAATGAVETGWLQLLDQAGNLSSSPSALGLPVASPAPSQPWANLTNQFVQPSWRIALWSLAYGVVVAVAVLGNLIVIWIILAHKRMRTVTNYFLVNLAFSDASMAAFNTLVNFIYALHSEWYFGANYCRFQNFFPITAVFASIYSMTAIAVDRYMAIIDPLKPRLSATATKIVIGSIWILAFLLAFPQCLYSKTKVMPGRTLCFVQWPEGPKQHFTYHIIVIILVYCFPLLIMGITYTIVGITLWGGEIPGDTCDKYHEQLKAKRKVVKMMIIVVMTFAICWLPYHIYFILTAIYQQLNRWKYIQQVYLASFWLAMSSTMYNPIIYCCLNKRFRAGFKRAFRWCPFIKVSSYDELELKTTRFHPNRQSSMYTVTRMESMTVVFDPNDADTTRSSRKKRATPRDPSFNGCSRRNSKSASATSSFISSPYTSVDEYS

Serotonin 5HT3 = Serotonin 5HT3 (Homo sapiens, UniProt P46098); test: Receptor binding panel: Serotonin 5HT3
Chain of Serotonin 5HT3 (P46098 24-478): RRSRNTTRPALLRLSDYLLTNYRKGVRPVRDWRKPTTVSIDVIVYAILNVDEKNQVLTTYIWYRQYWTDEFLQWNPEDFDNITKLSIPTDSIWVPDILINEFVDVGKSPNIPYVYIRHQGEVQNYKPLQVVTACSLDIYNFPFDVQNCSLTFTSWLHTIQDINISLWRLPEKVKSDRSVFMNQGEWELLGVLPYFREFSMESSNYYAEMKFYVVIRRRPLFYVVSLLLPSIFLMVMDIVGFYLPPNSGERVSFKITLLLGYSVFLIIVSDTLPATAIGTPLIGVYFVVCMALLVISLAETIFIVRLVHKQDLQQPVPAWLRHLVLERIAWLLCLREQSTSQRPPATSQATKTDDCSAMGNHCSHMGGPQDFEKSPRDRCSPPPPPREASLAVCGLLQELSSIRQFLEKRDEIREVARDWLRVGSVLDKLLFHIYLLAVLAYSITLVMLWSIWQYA

Estrogen = test: Receptor binding panel: Estrogen
Dopamine D2 short = Dopamine D2 short (Homo sapiens, UniProt P14416); test: Receptor binding panel: Dopamine D2 short
Chain of Dopamine D2 short (P14416 1-414 isoform P14416-2): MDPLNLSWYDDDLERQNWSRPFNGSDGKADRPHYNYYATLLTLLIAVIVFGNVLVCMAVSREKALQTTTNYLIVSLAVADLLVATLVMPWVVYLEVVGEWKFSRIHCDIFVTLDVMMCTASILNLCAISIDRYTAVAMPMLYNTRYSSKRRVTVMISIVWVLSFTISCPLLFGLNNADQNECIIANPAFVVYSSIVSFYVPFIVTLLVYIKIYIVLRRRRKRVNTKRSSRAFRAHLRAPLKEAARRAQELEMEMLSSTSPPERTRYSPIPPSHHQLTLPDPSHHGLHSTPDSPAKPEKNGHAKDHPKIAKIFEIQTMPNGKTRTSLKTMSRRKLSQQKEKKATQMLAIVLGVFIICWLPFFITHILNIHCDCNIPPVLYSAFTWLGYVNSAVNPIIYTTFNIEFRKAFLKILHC

[3] = test system: Glutamate (NMDA phencyclidine site); test: Receptor binding panel: Glutamate (NMDA phencyclidine site)
CRF1 = target: T1, CRF1 (Homo sapiens, UniProt P34998); test: Receptor binding panel: CRF1
T1 sequence (P34998 24-415): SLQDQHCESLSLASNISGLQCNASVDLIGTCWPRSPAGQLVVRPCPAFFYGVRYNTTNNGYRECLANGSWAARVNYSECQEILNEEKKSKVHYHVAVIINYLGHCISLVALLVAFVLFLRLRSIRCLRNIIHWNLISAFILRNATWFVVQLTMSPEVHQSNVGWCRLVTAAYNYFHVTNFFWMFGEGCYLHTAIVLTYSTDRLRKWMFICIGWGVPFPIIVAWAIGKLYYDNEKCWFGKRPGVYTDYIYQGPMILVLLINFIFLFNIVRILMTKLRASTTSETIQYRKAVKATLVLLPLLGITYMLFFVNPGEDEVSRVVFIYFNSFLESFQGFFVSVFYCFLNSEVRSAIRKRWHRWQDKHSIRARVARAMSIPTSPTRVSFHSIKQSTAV

Clc1ccc(C2CC3CCC2N3)cn1 (racemic) [(±)-Epibatidine, reference compound]
Inhibition (%) (Nicotinic): 98.46%

Ic1ccccc1CN[C@@H]1C2CCN(CC2)[C@@H]1C(c1ccccc1)c1ccccc1 (racemic) [L-703,606, reference compound]
Inhibition (%) (Neurokinin NK1): 94.45%

CC(C)=CCN1CCC2(C)c3cc(O)ccc3CC1C2C (single isomer, unassigned; (+)) [(+)-Pentazocine, reference compound]
Inhibition (%) (Sigma σ1): 100.00%

C[C@@H](N)Cc1c[nH]cn1 [(R)(−)-α-Methyl histamine, reference compound]
Inhibition (%) (Histamine H3): 98.17%

Cc1onc(O)c1C[C@H](N)C(=O)O [(S)-AMPA, reference compound]
Inhibition (%) (Glutamate (AMPA)): 100.00%

CN/C(=N/CCSCc1nc[nH]c1C)NC#N [Cimetidine, reference compound]
Inhibition (%) (Histamine H2): 100.00%

CN1C(=O)CN=C(c2ccccc2)c2cc(Cl)ccc21 [Diazepam, reference compound]
Inhibition (%) (GABA A (BZ central)): 100.00%

CCCCOc1cc(C(=O)NCCN(CC)CC)c2ccccc2n1 [Dibucaine, reference compound]
Inhibition (%) (Na channel site 2): 97.37%

COc1ccc(Cl)cc1C(=O)NCCc1ccc(S(=O)(=O)NC(=O)NC2CCCCC2)cc1 [Glybenclamide, reference compound]
Inhibition (%) (K Channel KATP): 100.00%

O=C(CCCN1CCC(O)(c2ccc(Cl)cc2)CC1)c1ccc(F)cc1 [Haloperidol, reference compound]
Inhibition (%) (Sigma σ2): 100.00%

CN(C)CCCN1c2ccccc2CCc2ccccc21 [Imipramine, reference compound]
Inhibition (%) (Serotonin transporter): 100.00%

C=C(C)[C@H]1CN[C@H](C(=O)O)[C@H]1CC(=O)O [Kainic acid, reference compound]
Inhibition (%) (Glutamate (Kainate)): 100.00%

O=C(c1ccc(F)cc1)C1CCN(CCn2c(=O)[nH]c3ccccc3c2=O)CC1 [Ketanserin, reference compound]
Inhibition (%) (Serotonin 5HT2A): 99.20%

N[C@@H](CCC(=O)O)C(=O)O [L-Glutamic acid, reference compound]
Inhibition (%) [1]: 100.00%

CCCCC/C=C\C[C@@H](O)/C=C/C=C/C=C\[C@@H](O)CCCC(=O)O [Leukotriene B4, reference compound]
Inhibition (%) (Leukotriene B4): 98.89%

CCCCC/C=C\C\C=C/C=C/C=C/[C@@H](SC[C@H](N)C(=O)NCC(=O)O)[C@@H](O)CCCC(=O)O [Leukotriene D4, reference compound]
Inhibition (%) (Leukotriene D4): 100.00%

O=C(O)/C(=C/c1c(C(=O)O)[nH]c2cc(Cl)cc(Cl)c12)c1ccccc1 [MDL105,519, reference compound]
Inhibition (%) [2]: 100.00%

COc1ccc2[nH]cc(CCNC(C)=O)c2c1 [Melatonin, reference compound]
Inhibition (%) (Melatonin MT1): 100.00%

NCc1cc(=O)[nH]o1 [Muscimol, reference compound]
Inhibition (%) (GABA A (Agonist site)): 97.63%

Oc1ccc2c3c1O[C@H]1c4oc5ccccc5c4C[C@@]4(O)[C@@H](C2)N(CC2CC2)CC[C@]314 [Naltriben, reference compound]
Inhibition (%) (Opiate δ): 98.32%

COC(=O)[C@H]1[C@H]2C[C@H]3c4[nH]c5ccccc5c4CCN3C[C@H]2CC[C@@H]1O [Rauwolscine, reference compound]
Inhibition (%) (α2C-Adrenergic): 100.00% | Inhibition (%) (α2A-Adrenergic): 100.00%

CSCC[C@H](NC(=O)[C@H](CC(C)C)NC(=O)CNC(=O)[C@H](Cc1ccccc1)N(C)C(=O)[C@H](Cc1ccccc1)NC(=O)[C@H](CC(=O)O)NC(=O)CCC(=O)O)C(N)=O [Senktide, reference compound] (Suc-DF[NMeF]GLM-NH2)
Inhibition (%) (Neurokinin NK3): 98.43%

CN1[C@@H]2CC[C@H]1C[C@@H](OC(=O)c1c[nH]c3ccccc13)C2 [Tropisetron, reference compound]
Inhibition (%) (Serotonin 5HT3): 99.80%

C[C@]12CC[C@@H]3c4ccc(O)cc4CC[C@H]3[C@@H]1CC[C@@H]2O [β-Estradiol, reference compound]
Inhibition (%) (Estrogen): 100.00%

(+)-Butaclamol [reference compound]
Inhibition (%) (Dopamine D2 short): 100.00%

(+)-MK-801 [reference compound]
Inhibition (%) [3]: 100.00%

Urocortin human (DNPSLSIDLTFHLLRTLLELARTQSQRERAEQNRIIFDSV; ends and bridges not checked; UniProt P55089 83-122, looked up) [reference compound]
Inhibition (%) (CRF1): 100.00%
